Test results published in paper PMC12362796, “Bilirubin Targeting WNK1 to Alleviate NLRP3‐Mediated Neuroinflammation” (Advanced Science, 2025).
pKd: −log10 of the molar value.

Tests used:
full-length hWNK1 = target: T1, full-length hWNK1 (Homo sapiens, UniProt Q9H4A3); experiment: MicroScale Thermophoresis (MST), EGFP-tagged full-length WNK1 in HEK293T cell lysates; type: binding; conditions: 15 min incubation, lysates of EGFP-WNK1 expressing HEK293T cells
T1 construct: We overexpressed full‐length WNK1 fused with Green Fluorescent Protein (GFP); expressed in transfected cells; host or cells: HEK293T
Protocol: (§1) To validate the direct binding of bilirubin to WNK1, we performed a Microscale Thermophoresis (MST) analysis, which assesses the binding capacity of a compound by measuring the movement of proteins over a microscopic temperature gradient.^[ [26], [27] ^] We overexpressed full‐length WNK1 fused with Green Fluorescent Protein (GFP) in HEK‐293 cells, incubated the lysates with bilirubin at varying dilutions, and subjected them to precise MST measurements in capillaries. […] Furthermore, biliverdin, a structurally similar intermediate product generated before bilirubin formation, was used as a control.
(§2) All WNK1 clones were derived from the original untagged hWNK1 cDNA (NM_018979), which was modified and subcloned into the pcDNA3.1, referred to as “full‐length WNK1” throughout this study. Truncated constructs, including 1–190aa, 191–491aa, 1–491aa, and 491–2382aa fragments, were generated by PCR using the full‐length template and subsequently ligated into linearized pcDNA3.1 vectors. WNK2 was obtained from Addgene Plasmid #24569, and WNK3 was obtained from Addgene Plasmid #81723. Both were subjected to base modifications and cloned into pcDNA3.1. The WNK4 clone was derived from hWNK4 cDNA (NM_032387.5), modified, and subcloned into the pCMV3‐C‐GFPSpark vector.
(§3) In HEK293T cells, proteins tagged with green fluorescent protein (GFP) were expressed. […]

hWNK4 = target: T2, hWNK4 (Homo sapiens, UniProt Q96J92); experiment: MST, WNK kinase family member WNK4; type: binding
T2 construct: expressed in transfected cells; host or cells: HEK293T
Protocol: as §1, §2, §3

T1 sequence (Q9H4A3 whole entry, the tested form may be a part): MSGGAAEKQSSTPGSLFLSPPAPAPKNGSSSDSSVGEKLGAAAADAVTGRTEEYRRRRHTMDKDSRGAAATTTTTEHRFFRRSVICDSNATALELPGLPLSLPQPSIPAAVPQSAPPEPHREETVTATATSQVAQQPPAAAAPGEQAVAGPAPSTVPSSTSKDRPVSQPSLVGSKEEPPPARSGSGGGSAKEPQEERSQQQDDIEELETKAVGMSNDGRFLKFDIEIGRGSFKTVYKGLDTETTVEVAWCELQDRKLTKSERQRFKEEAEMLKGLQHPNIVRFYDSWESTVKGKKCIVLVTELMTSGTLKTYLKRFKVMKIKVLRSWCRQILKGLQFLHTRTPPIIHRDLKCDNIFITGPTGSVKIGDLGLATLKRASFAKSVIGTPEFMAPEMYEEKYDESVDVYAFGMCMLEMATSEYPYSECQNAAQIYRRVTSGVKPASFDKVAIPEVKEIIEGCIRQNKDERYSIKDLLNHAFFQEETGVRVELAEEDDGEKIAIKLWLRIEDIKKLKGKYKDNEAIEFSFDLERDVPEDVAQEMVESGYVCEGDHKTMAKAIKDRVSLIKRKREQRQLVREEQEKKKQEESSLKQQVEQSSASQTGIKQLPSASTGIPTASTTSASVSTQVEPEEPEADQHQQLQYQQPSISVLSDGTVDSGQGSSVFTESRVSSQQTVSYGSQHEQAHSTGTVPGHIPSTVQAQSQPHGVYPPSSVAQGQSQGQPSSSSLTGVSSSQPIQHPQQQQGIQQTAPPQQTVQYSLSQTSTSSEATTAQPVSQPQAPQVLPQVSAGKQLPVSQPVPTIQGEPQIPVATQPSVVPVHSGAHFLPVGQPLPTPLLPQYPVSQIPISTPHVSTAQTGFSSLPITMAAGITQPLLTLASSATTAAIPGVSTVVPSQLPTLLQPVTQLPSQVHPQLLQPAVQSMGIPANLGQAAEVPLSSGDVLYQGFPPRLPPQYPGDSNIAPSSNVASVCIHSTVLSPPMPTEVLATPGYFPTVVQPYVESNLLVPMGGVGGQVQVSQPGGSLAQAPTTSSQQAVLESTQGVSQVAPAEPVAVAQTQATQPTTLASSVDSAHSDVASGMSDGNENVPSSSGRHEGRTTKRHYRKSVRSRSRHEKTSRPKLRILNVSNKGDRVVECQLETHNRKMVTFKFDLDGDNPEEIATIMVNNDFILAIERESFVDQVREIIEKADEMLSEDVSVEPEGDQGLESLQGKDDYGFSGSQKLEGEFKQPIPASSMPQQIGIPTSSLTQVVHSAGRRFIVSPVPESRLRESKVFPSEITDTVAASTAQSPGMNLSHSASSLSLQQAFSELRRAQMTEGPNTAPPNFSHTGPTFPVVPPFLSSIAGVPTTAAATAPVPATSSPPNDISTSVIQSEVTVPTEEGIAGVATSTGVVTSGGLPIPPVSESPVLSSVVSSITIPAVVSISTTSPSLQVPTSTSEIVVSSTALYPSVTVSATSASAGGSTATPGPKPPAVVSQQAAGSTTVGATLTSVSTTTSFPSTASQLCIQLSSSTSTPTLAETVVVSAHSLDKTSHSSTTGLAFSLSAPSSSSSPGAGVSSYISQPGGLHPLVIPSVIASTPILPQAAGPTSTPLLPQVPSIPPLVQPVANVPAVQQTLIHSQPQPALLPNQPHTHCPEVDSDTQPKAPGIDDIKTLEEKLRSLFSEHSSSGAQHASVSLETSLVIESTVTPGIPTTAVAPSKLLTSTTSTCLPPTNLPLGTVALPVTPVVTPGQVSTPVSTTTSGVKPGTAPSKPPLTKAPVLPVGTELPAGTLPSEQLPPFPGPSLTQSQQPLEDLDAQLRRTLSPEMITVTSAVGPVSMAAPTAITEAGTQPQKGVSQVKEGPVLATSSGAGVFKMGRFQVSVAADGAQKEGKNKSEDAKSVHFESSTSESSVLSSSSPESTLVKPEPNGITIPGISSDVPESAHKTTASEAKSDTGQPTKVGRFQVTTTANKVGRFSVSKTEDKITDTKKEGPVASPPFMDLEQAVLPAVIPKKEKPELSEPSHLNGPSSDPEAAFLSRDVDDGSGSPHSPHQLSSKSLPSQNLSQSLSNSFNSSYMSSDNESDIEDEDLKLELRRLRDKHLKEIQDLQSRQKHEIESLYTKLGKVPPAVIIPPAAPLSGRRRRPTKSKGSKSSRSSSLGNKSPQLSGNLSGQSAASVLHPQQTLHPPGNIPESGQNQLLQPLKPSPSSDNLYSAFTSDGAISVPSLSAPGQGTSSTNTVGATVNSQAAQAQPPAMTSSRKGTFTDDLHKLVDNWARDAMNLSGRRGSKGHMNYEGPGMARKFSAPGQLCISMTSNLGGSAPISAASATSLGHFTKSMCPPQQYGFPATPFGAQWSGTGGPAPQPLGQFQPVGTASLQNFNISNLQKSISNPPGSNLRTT
T2 sequence (Q96J92 whole entry): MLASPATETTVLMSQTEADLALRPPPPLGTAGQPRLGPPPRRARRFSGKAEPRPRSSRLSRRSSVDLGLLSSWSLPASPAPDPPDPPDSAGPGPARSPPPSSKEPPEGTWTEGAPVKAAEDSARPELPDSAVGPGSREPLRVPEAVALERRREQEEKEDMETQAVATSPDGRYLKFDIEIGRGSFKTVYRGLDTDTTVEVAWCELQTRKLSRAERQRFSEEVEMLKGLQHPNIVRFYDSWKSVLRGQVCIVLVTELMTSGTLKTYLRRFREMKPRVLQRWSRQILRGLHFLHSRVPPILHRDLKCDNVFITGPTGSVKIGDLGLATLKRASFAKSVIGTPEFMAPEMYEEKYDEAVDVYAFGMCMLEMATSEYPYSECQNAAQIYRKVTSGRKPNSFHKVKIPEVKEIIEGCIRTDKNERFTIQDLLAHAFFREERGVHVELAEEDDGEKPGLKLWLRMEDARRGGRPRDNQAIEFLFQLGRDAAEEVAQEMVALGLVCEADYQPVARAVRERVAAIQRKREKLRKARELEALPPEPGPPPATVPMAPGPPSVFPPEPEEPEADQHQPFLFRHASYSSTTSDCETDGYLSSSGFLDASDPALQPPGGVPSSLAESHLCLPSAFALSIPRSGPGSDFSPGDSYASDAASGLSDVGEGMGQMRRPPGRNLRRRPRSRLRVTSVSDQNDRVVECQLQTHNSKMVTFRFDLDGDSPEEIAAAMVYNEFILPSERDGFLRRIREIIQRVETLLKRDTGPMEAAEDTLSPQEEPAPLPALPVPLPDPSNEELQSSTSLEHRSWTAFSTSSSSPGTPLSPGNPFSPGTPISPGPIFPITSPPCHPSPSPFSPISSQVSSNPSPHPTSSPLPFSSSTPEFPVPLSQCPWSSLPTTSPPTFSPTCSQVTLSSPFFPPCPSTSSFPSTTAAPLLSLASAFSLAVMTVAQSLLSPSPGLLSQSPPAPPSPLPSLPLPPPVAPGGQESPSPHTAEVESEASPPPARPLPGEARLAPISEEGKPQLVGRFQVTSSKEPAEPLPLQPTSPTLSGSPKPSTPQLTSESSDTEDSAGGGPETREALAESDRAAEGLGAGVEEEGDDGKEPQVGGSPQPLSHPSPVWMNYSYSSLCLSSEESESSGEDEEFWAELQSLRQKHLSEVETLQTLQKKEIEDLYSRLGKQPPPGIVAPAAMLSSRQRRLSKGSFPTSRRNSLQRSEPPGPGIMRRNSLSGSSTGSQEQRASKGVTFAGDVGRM

pKd (full-length hWNK1): 7.17
pKd (hWNK4): 6.55
SMILES: C=CC1=C(C)/C(=C/c2[nH]c(Cc3[nH]c(/C=C4\NC(=O)C(C)=C4C=C)c(C)c3CCC(=O)O)c(CCC(=O)O)c2C)NC1=O [bilirubin, Bilirubin]
